Several values for one entry are separate records, joined by “and”; a condition that tells them apart may be missing. Identical values can stand only once. Like-named read-outs stand apart in the source and are kept apart here. Where no end group is shown, it is not given here.
Key:
CAP-18 [1] = test: CAP-18 gene expression in tissue specimens of Shigella-infected rabbits; type: in vivo, rabbit; set-up: scale not given here; details: treated Shigella-infected rabbits, n = 5, median
CAP-18 [2] = test: CAP-18 immunoreactivity in epithelial lining of organs (immunostaining, ACIA score); type: in vivo, rabbit; details: for CAP-18 peptide in the mucosal epithelia: Shigella infected rabbits, lung, trachea, rectum and colon; for CAP-18 in the organs of healthy rabbits: oral (FIG. 1B); for CAP-18 (protein) expression: oral, shigellosis infected rabbit, rectum, distal colon, kidney, lung and trachea relative to untreated infected rabbits (FIG. 1A)
Text: FIG. 1. CAP-18 immunoreactivity in the epithelial lining of different organs in (A) Healthy rabbits, Shigella-infected rabbits and infected rabbits treated with NaB, TBG or PBA (B) healthy rabbits treated with NaB, TBG or PBA. Quantification of immunoreactive area relative to the total cell area of the tissue section was done by a computerized image analysis technique, and the results are expressed as ACIA score, i.e., the total positively stained area×total mean intensity (1-256 levels/per pixel) of the positive area divided by total cell area. One-way ANOVA was used in comparing data between healthy and infected/infected treated rabbits, between infected and infected treated rabbits, and between healthy and healthy-treated rabbits. The differences were significant when P<0.05; ‡ significant when comparing with healthy, * significant when comparing with infected.

Shigella [3] = test: Shigellosis rabbit model, clinical illness and recovery; type: in vivo; details: for clinical illness: Shigella infected rabbits
Experimental: (§1) Anti-Shigella activity in stool extracts from PBA, TBG and NaB-treated rabbits was higher compared to infected or healthy rabbits.
(§2) In a shigellosis model a 0.14 mmol/dose lead to 2 out of 3 rabbits recovering from shigellosis. Assuming a blood volume of 121 ml in the 2 kg rabbit the maximum concentration of NaB in the blood after IV administration would have been 1.2 mM.

Shigella [4] = test: Anti-Shigella activity in stool extracts of treated rabbits; type: in vivo, rabbit; details: compared to infected or healthy rabbits
Text: as §1

[5] = Butyrate concentration in rabbit serum after oral NaB; type: in vivo; details: oral dosing of 15.6 mg to each rabbit, read-out: maximum concentration of butyrate in the blood (Cmax)
Experimental: FIG. 2. Butyrate concentration in healthy rabbit serum after oral treatment with NaB. Serum was collected from healthy rabbits at different time points after oral treatment with a single 0.14 mmol dose of NaB (15.6 mg). Four analyses (duplicate analyses of two samples) of serum from a NaB treated rabbit are shown, where the concentrations are calculated from two separate standard curves (one for each duplicate). NaB: Sodium butyrate.
The maximum concentration of butyrate in the blood is about 8 μM (Cmax) after oral dosing of 15.6 mg of butyrate to each rabbit.

[6] = Maximum concentration of NaB in blood after IV administration (assumed blood volume); type: in vivo; details: 0.14 mmol/dose; assuming blood volume of 121 ml in the 2 kg rabbit
Experimental: as §2

[7] = system: Shigella dysenteriae type 1 strain; details: cited from earlier work
Shigella flexneri strain = details: cited from earlier work
[8] = system: Pseudomonas aeruginosa (strain PA01); test: Visual inspection of VA10 cell cultures infected with Pseudomonas aeruginosa; type: cell-based; details: VA10 cells induced 48 h with 20 nM vitamin D, 4 mM PBA or both; 24 hrs after infection; control wells dense culture of bacteria
Experimental: FIG. 7. Visual assessment of survival of VA10 cells in the presence of low infectivity Pseudomonas aeruginosa 0-1 bacteria (PAO1). After cultivating for 6 days the cells were stimulated for 48 h with 4-PBA, VitD, and 4-PBA+VitD. Subsequently the cells were stimulated for 24 h with 10 MOI PAO1 and inspected under the microscope.
VA10 cells were grown in BEGM medium (Bronchial Epithelial Growth Medium). VA10 cells were induced by adding PBA and/or vitamin D to the medium. Untreated control was included. After 48 h induction the culture was infected with low dose of Pseudomonas aeruginosa (strain PA01) along with freeze-thaw-treated bacteria. After 24 hrs of cultivation the culture wells were visually inspected. Dense culture of bacteria was found in control wells, but the wells of cells that had been induced with 20 nM vitamin D, 4 mM PBA or combination of 20 nM vitamin D and 4 mM PBA contained clear medium (FIG. 7).

DEFB-1 = DEFB-1 mRNA expression in VA10 cells by rtPCR; type: cell-based, human; details: first 4-PBA, subsequently low-dose inactivated Pseudomonas bacteria
Experimental: FIG. 9. DEFB-1 expression in VA10 cells after 48 h stimulation with 4 mM 4-PBA, 20 nM VitD, and […]+20 nM VitD and subsequent 24 h stimulation with low infectivity freeze-thawed PAO1 suspension (PAO1 has been frozen in DMEM at −25° C. for a week. The majority of bacteria have been inactivated.)
In addition to the visual inspection the degree of induction of CAMP mRNA, that codes for LL-37, and DEFB-1, that codes for […], was determined by rtPCR.

[9] = after the administration of a 5 g dose; cited from earlier work
[10] = system: E. coli strain E2348/69 (EPEC); type: cell-based; details: strain E2348/69 (EPEC, 0.90 μM)
Experimental: To assess bactericidal activity of synthetic CAP-18 and PBA, an in vitro killing experiment was carried out with E. coli strain E2348/69 (EPEC). […] Note that dosing in Phase II TB study is 1 g daily with 5000 IU vitamin D.

[11] = LP (lamina propria) distal colon
[12] = SE (surface epithelium) distal colon

Row | Compound | CAP-18 gene expression (CAP-18 [1]; Kidney) | CAP-18 gene expression (CAP-18 [1]; [11]) | CAP-18 gene expression (CAP-18 [1]; LP (lamina propria) rectum) | CAP-18 gene expression (CAP-18 [1]; Lungs) | CAP-18 gene expression (CAP-18 [1]; [12]) | CAP-18 gene expression (CAP-18 [1]; SE (surface epithelium) rectum) | CAP-18 gene expression (CAP-18 [1]; Trachea) | CAP-18 gene expression (CAP-18 [1]; U. tract) | CAP-18 peptide in the mucosal epithelia (CAP-18 [2]) | CAP-18 in the organs of healthy rabbits (CAP-18 [2]) | CAP-18 (protein) expression (CAP-18 [2]) | clinical illness (Shigella [3]) | Anti-Shigella activity in stool extracts (Shigella [4]) | visual inspection of culture wells [8] | other results
1 | CC[C@H](C)[C@H](NC(=O)[C@H](CCCCN)NC(=O)[C@H](CCC(=O)O)NC(=O)[C@H](CCCCN)NC(=O)[C@H](CO)NC(=O)[C@H](CCCCN)NC(=O)[C@H](CCCNC(=N)N)NC(=O)[C@H](Cc1ccccc1)NC(=O)[C@H](Cc1ccccc1)NC(=O)[C@H](CC(=O)O)NC(=O)CNC(=O)[C@H](CC(C)C)NC(=O)[C@@H](N)CC(C)C)C(=O)NCC(=O)N[C@@H](CCCCN)C(=O)N[C@@H](CCC(=O)O)C(=O)N[C@@H](Cc1ccccc1)C(=O)N[C@@H](CCCCN)C(=O)N[C@@H](CCCNC(=N)N)C(=O)N[C@H](C(=O)N[C@H](C(=O)N[C@@H](CCC(N)=O)C(=O)N[C@@H](CCCNC(=N)N)C(=O)N[C@H](C(=O)N[C@@H](CCCCN)C(=O)N[C@@H](CC(=O)O)C(=O)N[C@@H](Cc1ccccc1)C(=O)N[C@@H](CC(C)C)C(=O)N[C@@H](CCCNC(=N)N)C(=O)N[C@@H](CC(N)=O)C(=O)N[C@@H](CC(C)C)C(=O)N[C@H](C(=O)N1CCC[C@H]1C(=O)N[C@@H](CCCNC(=N)N)C(=O)N[C@H](C(=O)N[C@@H](CCC(=O)O)C(=O)N[C@@H](CO)C(=O)O)[C@@H](C)O)C(C)C)[C@@H](C)CC)C(C)C)[C@@H](C)CC [LL-37] |  |  |  |  |  |  |  |  |  |  |  |  |  |  | Zone diameter (Haemophilus influenzae; 50 uM): 0 mm; Zone diameter (Haemophilus influenzae; 100 uM): 7.75 mm; Zone diameter (Haemophilus influenzae; 300 uM): 13.3 mm; Zone diameter (Moraxella catarrhalis; 10 uM): 5.4 mm; Zone diameter (Moraxella catarrhalis; 25 uM): 6.3 mm; Zone diameter (Moraxella catarrhalis; 50 uM): 7.45 mm; Zone diameter (Moraxella catarrhalis; 100 uM): 8.9 mm
2 | CCCC(=O)O [NaB, sodium butyrate] | 17.4 | 0.55 | 0.1 | 12.6 | 5.0 | 0.3 | 0.71 | 0.19 | up-regulation | do not cause increase | systemic stimulation | reduced clinical illness | higher |  | CAP-18 level (CAP-18 [2]; colonic SE, intravenous injection into infected rabbits): 5.6±1.8 ACIA score; CAP-18 level (CAP-18 [2]; colonic SE, orally treated infected rabbits): 7.4±0.5 ACIA score; CAP-18 level (CAP-18 [2]; rectal SE, intravenous injection into infected rabbits): 6.5±1.8 ACIA score; CAP-18 level (CAP-18 [2]; rectal SE, orally treated infected rabbits): 8.13±1 ACIA score; rabbits recovering from shigellosis (Shigella [3]; 0.14 mmol/dose, intravenous): 2 out of 3; Cmax [5]: ~8 µM; maximum concentration in the blood after IV administration [6]: 1.2 mM; concentration for maximum killing [7]: 400 mM and 44 mg/ml; concentration for maximum killing (Shigella flexneri strain): 400 mM and 44 mg/ml
3 | O=C(O)CCCc1ccccc1 [PBA, sodium 4-phenylbutyrate, reference compound] | 3.9 | 0.53 | 0.41 | 5.3 | 2.4 | 0.18 | 1.1 | 0.13 | up-regulation | do not cause increase | systemic stimulation | reduced clinical illness | higher | clear medium | DEFB-1 expression (DEFB-1): up to six-fold; Cmax [9]: 1200 µM
4 | CCCC(=O)OCC(COC(=O)CCC)OC(=O)CCC [TBG, glyceryl tributyrate] | 2.7 | 0.43 | 0.07 | 6.4 | 2.8 | 0.4 | 1.11 | 0.25 | up-regulation |  | systemic stimulation | reduced clinical illness | higher |  | CAP-18 peptide level in the kidney (CAP-18 [2]; non-infected rabbits (FIG. 1B)): increased levels
5 | GLRKRLRKFRNKIKEKLKKIGQKIQGLLPKLAPRTDY [CAP-18] |  |  |  |  |  |  |  |  |  |  |  |  |  |  | killing of EPEC [10]: 97-99%
6 | vitamin D |  |  |  |  |  |  |  |  |  |  |  |  |  | clear medium | 
